According to patent US20130158072A1, “KAPPA OPIOID RECEPTOR BINDING LIGANDS” (Research Triangle Institute, priority 2010, published 2013):
“Also recorded” adds a separate entry of the source. Counter-ions that a name gives are not always drawn. Marks after values point to notes of the source that are not given here.

Columns and labels:
mice = details: oral; cited from earlier work
κ-opioid receptor = details: in vivo, compared with other κ-opioid antagonists; cited from earlier work
[1] = target: T1, cloned human κ-opioid receptor (Homo sapiens, UniProt P41145); design: expressed in transfected cells; host or cells: CHO cells; details: previously reported; cited from earlier work
T1 sequence (P41145 whole entry): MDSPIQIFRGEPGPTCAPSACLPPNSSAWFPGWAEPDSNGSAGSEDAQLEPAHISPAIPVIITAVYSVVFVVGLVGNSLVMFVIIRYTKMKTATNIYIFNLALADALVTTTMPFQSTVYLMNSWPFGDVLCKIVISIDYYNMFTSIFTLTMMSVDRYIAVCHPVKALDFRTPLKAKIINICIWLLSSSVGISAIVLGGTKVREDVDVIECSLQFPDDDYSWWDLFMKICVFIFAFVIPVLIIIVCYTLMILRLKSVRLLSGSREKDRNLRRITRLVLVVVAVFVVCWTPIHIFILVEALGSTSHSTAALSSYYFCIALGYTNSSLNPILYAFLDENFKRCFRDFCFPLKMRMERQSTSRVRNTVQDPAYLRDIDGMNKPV

rodents = details: forced-swim, elevated plus maze, fear-potentiated startle; cited from earlier work
[2] = target: T1, cloned human κ-opioid receptor; assay: Intrinsic activity in the [35S]GTPγS binding assay; assay type: biochemical; design: expressed in transfected cells; host or cells: CHO cells; details: at 10 μM
Experimental: (§1) Test compound assay concentrations ranged from 1-5000 nM, depending on their activity. The Ke values were calculated using the formula: Ke=[L]/DR−1, where [L] is the concentration of test compound and DR is the ratio of agonist EC50 value in the presence or absence of test compound, respectively.

rats = details: oral; cited from earlier work
[3] = target: T1, cloned human κ-opioid receptor; assay: Inhibition of U69,593-stimulated [35S]GTPγS binding; details: for κ, U69,593 Ke / κ, U69,593 Ke (nM): antagonism of U69,593-stimulated [35S]GTPγS binding, CHO cells, means ± SE, at least three experiments; for δ/κ: κ selectivity relative to δ
Experimental: as §1

[4] = target: T2, cloned human μ-opioid receptor (Homo sapiens, UniProt P35372); assay: Intrinsic activity in the [35S]GTPγS binding assay; assay type: biochemical; details: at 10 μM
T2 construct: expressed in transfected cells; host or cells: CHO cells
T2 sequence (P35372 whole entry): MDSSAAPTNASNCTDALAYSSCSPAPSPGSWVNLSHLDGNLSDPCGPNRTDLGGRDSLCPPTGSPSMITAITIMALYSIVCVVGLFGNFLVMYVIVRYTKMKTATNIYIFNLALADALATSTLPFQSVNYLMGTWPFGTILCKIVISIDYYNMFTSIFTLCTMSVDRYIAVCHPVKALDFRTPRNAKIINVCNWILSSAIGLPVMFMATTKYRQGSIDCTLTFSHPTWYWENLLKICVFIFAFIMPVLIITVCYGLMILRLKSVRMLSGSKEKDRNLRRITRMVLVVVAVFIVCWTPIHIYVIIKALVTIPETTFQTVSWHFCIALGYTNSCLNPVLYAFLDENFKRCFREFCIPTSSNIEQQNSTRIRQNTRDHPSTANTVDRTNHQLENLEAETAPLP
Experimental: as §1

[5] = target: T3, cloned human δ-opioid receptor (Homo sapiens, UniProt P41143); assay: Intrinsic activity in the [35S]GTPγS binding assay; assay type: biochemical; details: at 10 μM
T3 construct: expressed in transfected cells; host or cells: CHO cells
T3 sequence (P41143 whole entry): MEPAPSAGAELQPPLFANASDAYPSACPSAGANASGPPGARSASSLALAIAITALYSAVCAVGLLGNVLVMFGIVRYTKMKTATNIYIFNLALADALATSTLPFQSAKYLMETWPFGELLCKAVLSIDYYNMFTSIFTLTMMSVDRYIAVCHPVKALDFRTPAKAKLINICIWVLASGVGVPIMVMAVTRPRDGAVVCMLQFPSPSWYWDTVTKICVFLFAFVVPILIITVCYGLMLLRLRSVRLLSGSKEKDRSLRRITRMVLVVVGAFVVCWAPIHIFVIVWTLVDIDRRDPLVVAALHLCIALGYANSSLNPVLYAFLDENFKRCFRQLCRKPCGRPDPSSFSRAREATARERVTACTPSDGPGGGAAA
Experimental: as §1

[6] = target: T2, cloned human μ-opioid receptor; assay: Inhibition of DAMGO-stimulated [35S]GTPγS binding; assay type: biochemical; details: for μ, DAMGO Ke (nM): antagonism of DAMGO-stimulated [35S]GTPγS binding, CHO cells, means ± SE, at least three experiments
Experimental: as §1

[7] = target: T3, cloned human δ-opioid receptor; assay: Inhibition of DPDPE-stimulated [35S]GTPγS binding; assay type: biochemical; details: antagonism of DPDPE-stimulated [35S]GTPγS binding, CHO cells; means ± SE, at least three experiments
Experimental: as §1

CC(C)[C@@H](CN1CC[C@@](C)(c2cccc(O)c2)[C@@H](C)C1)NC(=O)[C@H]1Cc2ccc(O)cc2CN1 [Compound 3, (3R)-7-hydroxy-N-((1S)-1-{[(3R,4R)-4-(3-hydroxyphenyl)-3,4-dimethyl-1-piperidinyl]methyl}-2-methylpropyl)-1,2,3,4-tetrahydro-3-isoquinolinecarboxamide]
antagonism of the antinociceptive activity of enadoline (mice): oral activity
potency at blocking κ-opioid agonist-induced activity (κ-opioid receptor): more potent
Ke value at the κ-opioid receptor [1]: 0.02 nM
fear and stress-induced responses (rodents): dose-dependently reduce fear and stress-induced responses
intrinsic activity at the κ opioid receptor [2]: none of the compounds displayed measurable intrinsic activity
prevention of stress-induced cocaine reinstatement of self-administration (rats): oral activity
κ, U69,593 Ke [3]: 0.02 nM
intrinsic activity at the μ opioid receptor [4]: none of the compounds displayed measurable intrinsic activity
intrinsic activity at the δ opioid receptor [5]: none of the compounds displayed measurable intrinsic activity

Oc1ccc2c3c1O[C@H]1c4[nH]c5c(c4C[C@@]4(O)[C@@H](C2)N(CC2CC2)CC[C@]314)C[C@@]1(O)[C@H]2Cc3ccc(O)c4c3[C@@]1(CCN2CC1CC1)[C@H]5O4 [Compound 1, nor-BNI]
fear and stress-induced responses (rodents): dose-dependently reduce fear and stress-induced responses

CCC(C)C(CN1CCC(C)(c2cccc(O)c2)C(C)C1)NC(=O)C1Cc2ccc(O)cc2CN1 (centres unmarked) [Compound 8a]
μ, DAMGO Ke (nM) [6]: 3 ± 1^c nM
potency at μ receptors compared to 3 ([6]; compared with 3): increased potency; also recorded: eight-fold increase in potency
Ke value at the κ-opioid receptor [1]: 0.03 nM
κ selectivity relative to the δ opioid receptor [1]: 800 fold
κ selectivity relative to the μ opioid receptor [1]: 100 fold
δ, DPDPE Ke (nM) [7]: 24 ± 4^c nM
κ, U69,593 Ke [3]: 0.03 nM
κ, U69,593 Ke (nM) [3]: 0.03 ± 0.02^c nM
δ/κ ([3]; ratio of Ke values): 800

COc1ccc2c(c1)CNC(C(=O)NC(CN1CCC(C)(c3cccc(O)c3)C(C)C1)C(C)C)C2 (centres unmarked) [Compound 8b]
μ, DAMGO Ke (nM) [6]: 51.4 ± 15^c nM
Ke value at the κ-opioid receptor [1]: 0.06 nM
fold less potent than 3 at the κ-opioid receptor [1]: 3 fold
κ selectivity relative to the δ opioid receptor [1]: 1970 fold
κ selectivity relative to the μ opioid receptor [1]: 857 fold
δ, DPDPE Ke (nM) [7]: 118 ± 45^c nM
κ, U69,593 Ke [3]: 0.06 nM
κ, U69,593 Ke (nM) [3]: 0.06 ± 0.01^c nM
decrease in potency at the κ receptor relative to 3 ([3]; compared with 3): 3 fold
δ/κ ([3]; ratio of Ke values): 1970
μ/κ ([3]; ratio of Ke values, κ selectivity relative to μ): 857

COc1cccc([C@]2(C)CCN(C[C@@H](NC(=O)[C@H]3Cc4ccc(O)cc4CN3C)C(C)C)C[C@@H]2C)c1 (as salt: hydrochloride) [Compound 8k, (3R)-7-Hydroxy-N-[(1S)-1-{[(3R,4R)-4-(3-methoxyphenyl)-3,4-dimethylpiperidin-1-yl]methyl}-2-methylpropyl]-2-methyl-1,2,3,4-tetrahydroisoquinoline-3-carboxamide]
melting point: 210 to 215 °C (dec.)

COc1cccc([C@]2(C)CCN(C[C@@H](NC(=O)[C@@]3(C)Cc4ccc(O)cc4CN3)C(C)C)C[C@@H]2C)c1 (as salt: hydrochloride) [Compound 8h, (3R)-7-Hydroxy-N-[(1S)-1-{[(3R,4R)-4-(3-methoxyphenyl)-3,4-dimethylpiperidin-1-yl]methyl}-2-methylpropyl]-3-methyl-1,2,3,4-tetrahydroisoquinoline-3-carboxamide]
melting point: > 220 °C (dec.)

CC[C@H](C)[C@@H](CN1CC[C@@](C)(c2cccc(OC)c2)[C@@H](C)C1)NC(=O)[C@@]1(C)Cc2ccc(O)cc2CN1 (as salt: hydrochloride) [Compound 8n, (3R)-7-Hydroxy-N-[(1S,2S)-1-{[(3R,4R)-4-(3-methoxyphenyl)-3,4-dimethylpiperidin-1-yl]methyl}-2-methylbutanyl)-3-methyl-1,2,3,4-tetrahydroisoquinoline-3-carboxamide]
melting point: 210 °C (dec.)

CC[C@H](C)[C@@H](CN1CC[C@@](C)(c2cccc(O)c2)[C@@H](C)C1)NC(=O)[C@H]1Cc2ccc(O)cc2CN1C (as salt: hydrochloride) [Compound 8j, (3R)-7-Hydroxy-N-[(1S,2S)-1-{[(3R,4R)-4-(3-hydroxyphenyl)-3,4-dimethylpiperidin-1-yl]methyl}-2-methylbutanyl]-2-methyl-1,2,3,4-tetrahydroisoquinoline-3-carboxamide]
melting point: 180 °C (dec.)

CC[C@H](C)[C@@H](CN1CC[C@@](C)(c2cccc(O)c2)[C@@H](C)C1)NC(=O)[C@@]1(C)Cc2ccc(O)cc2CN1 (as salt: hydrochloride) [Compound 8i, (3R)-7-Hydroxy-N-[(1S,2S)-1-{[(3R,4R)-4-(3-hydroxyphenyl)-3,4-dimethylpiperidin-1-yl]methyl}-2-methylbutanyl]-3-methyl-1,2,3,4-tetrahydroisoquinoline-3-carboxamide]
melting point: > 220 °C (dec.)
